From paper PMC7460883, “Dual Substrate Specificity of the Rutinosidase from Aspergillus niger and the Role of Its Substrate Tunnel” (International Journal of Molecular Sciences, 2020)

Target: T1, AnRut (recombinant rutinosidase from Aspergillus niger) (Aspergillus niger, UniProt A0A6B9UJ04)
T1 construct: vector pPICZalphaA-RUT, secreted as fusion product by Pichia pastoris KM71H; crude culture medium, ca 66 kDa glycosylated (45 kDa deglycosylated), dimer
T1 sequence (A0A6B9UJ04 20-386): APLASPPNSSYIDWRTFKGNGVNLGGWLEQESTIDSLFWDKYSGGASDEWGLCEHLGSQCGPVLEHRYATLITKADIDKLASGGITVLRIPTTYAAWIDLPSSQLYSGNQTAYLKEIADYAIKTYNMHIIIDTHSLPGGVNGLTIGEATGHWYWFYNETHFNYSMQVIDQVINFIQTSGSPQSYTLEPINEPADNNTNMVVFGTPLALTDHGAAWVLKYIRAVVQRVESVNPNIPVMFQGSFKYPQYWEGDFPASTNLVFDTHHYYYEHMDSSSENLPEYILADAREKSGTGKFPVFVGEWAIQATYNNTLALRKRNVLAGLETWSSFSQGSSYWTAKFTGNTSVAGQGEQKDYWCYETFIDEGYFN
Assay: transglycosylation (glycosyl donor), TLC / product isolation
Type: biochemical
Conditions: pH 3.5, 36 °C; crude culture medium with secreted recombinant enzyme; suspended substrate; acceptors 3-9

SMILES | transglycosylation (glycosyl donor), TLC / product isolation
C[C@@H]1O[C@@H](OC[C@H]2O[C@@H](Oc3c(-c4ccc(O)c(O)c4)oc4cc(O)cc(O)c4c3=O)[C@H](O)[C@@H](O)[C@@H]2O)[C@H](O)[C@H](O)[C@H]1O [compound 1, rutin] | both AnRut activities, i.e., rutinosidase (with rutin donor) and glucosidase (with isoquercitrin donor)
O=c1c(O[C@@H]2O[C@H](CO)[C@@H](O)[C@H](O)[C@H]2O)c(-c2ccc(O)c(O)c2)oc2cc(O)cc(O)c12 [compound 2, isoquercitrin] | both AnRut activities, i.e., rutinosidase (with rutin donor) and glucosidase (with isoquercitrin donor)
